Columns and labels:
Trypanosoma cruzi [1] = test: Percent inhibition of growth against Trypanosoma cruzi epimastigotes, Y strain at concentration 4 ug/ml (13-17 uM); assay type: functional; settings: read-out: GI
Trypanosoma cruzi [2] = test: In vitro for antitrypanosomal activity against Trypanosoma cruzi epimastigote, Ystrain; assay type: functional, organism-based
Trypanosoma cruzi [3] = test: In vitro for antitrypanosomal activity against Trypanosoma cruzi epimastigote, SC-28 strain; assay type: functional, organism-based
Trypanosoma cruzi [4] = test: In vitro antitrypanosomal activity against Trypanosoma cruzi epimastigote, CL strain; assay type: functional, organism-based

SMILES | inhibition of growth at 4 µg/mL (Trypanosoma cruzi [1]) [%] | IC50 (Trypanosoma cruzi [2]) [nM] | IC50 (Trypanosoma cruzi [3]) [nM] | IC50 (Trypanosoma cruzi [4]) [nM]
COc1ccc2c(c1OC)C(=O)c1oc(C(C)O)cc1C2=O (configuration not stated) | 22 | – | – | –
COc1ccc2c(c1OC)C(=O)c1ccoc1C2=O | 45 | – | – | –
CC1CS(=O)(=O)CCN1/N=C/c1ccc([N+](=O)[O-])o1 (configuration not stated) [NIFURTIMOX] | 100 | 3290 | 3550 | 3810
COc1ccc2c(c1OC)C(=O)c1occc1C2=O | 25 | – | – | –
COc1ccc2c(OC(C)=O)c3cc(C(C)=O)oc3cc2c1 | 100 | 1920 | 2170 | 1860
COc1ccc2c(c1)C(c1ccco1)OC2=O (configuration not stated) | 18 | – | – | –
COc1ccc2c(c1OC)C(=O)c1oc(C(C)=O)cc1C2=O | 45 | – | – | –
COc1ccc(C(=O)O)c(Cc2ccco2)c1 | 0 | – | – | –
COc1ccc2c(c1)C(=O)c1cc(C(C)O)oc1C2=O (configuration not stated) | 100 | 2820 | 3050 | 2650
O=C1C(=O)c2ccoc2-c2ccccc21 | 100 | 3020 | 2800 | 2550
O=C(Cn1ccnc1[N+](=O)[O-])NCc1ccccc1 [BENZNIDAZOLE] | 100 | 8050 | 8970 | 8950
COc1cccc2c1C(c1ccco1)OC2=O (configuration not stated) | 19 | – | – | –
COc1ccc2c(c1)C(c1ccc(C(C)=O)o1)OC2=O (configuration not stated) | 17 | – | – | –
COc1ccc2c(c1)C(=O)c1oc(C(C)=O)cc1C2=O | 100 | 490 | 570 | 530

Source: ChEMBL document CHEMBL1128765, “Growth inhibitory effect of naphthofuran and naphthofuranquinone derivatives on Trypanosoma cruzi epimastigotes” (Bioorg Med Chem Lett, 1995)
